Legend:
[1] = target: replication of MDV-1 by Qβ replicase (Escherichia virus Qbeta, UniProt P14647); test: Inhibition of MDV-1 replication by dyes in linear-phase Qβ replicase reactions; type: biochemical, bacteriophage Qβ; details: for ability to inhibit the replication of MDV-1: linear-phase reactions, template RNA in excess over enzyme
Method: A number of dyes, including ethidium bromide, ethidium bromide homodimer, propidium iodide, proflavine, quinacrine, Hoescht 33258 (bis-benzamidine),dimidium bromide and acridine orange, were tested for their ability to inhibit the replication of MDV-1 in linear-phase reactions, i.e., where the template RNA is present in excess over the enzyme and the amount of replicated RNA thus increases linearly with time. […] One of the strongest inhibitors, propidium iodide, was selected for further study.

[2] = target: T1, replication of wild type MDV-1 RNA by Qβ replicase (Escherichia virus Qbeta, UniProt P14647); test: Effect of propidium iodide on replication of wild type MDV-1 RNA in a Qβ replicase preparation (32P-CTP incorporation time course); type: biochemical, bacteriophage Qβ
T1 construct: made in house
Method: Propidium iodide was tested for its effect on the replication of wild type RNA in a preparation of Qβ replicase. Propidium iodide in an amount of either 0, 1, or 3 μg/ml was added to a reaction buffer containing: 90 mM Tris HCl (pH7.5), 14 mM MgCl2, 0.4 mM each ATP, GTP, UTP, and CTP, and 10 μCi α- ^32 P-CTP. The Qβ replicase reaction was initiated in each sample by addition of 1.2 μg of Qβ replicase prepared according to the method of Eoyang and August, (1972), ibid. Aliquots of the reaction mixture were withdrawn every 5 minutes and spotted on DE81 filters (Schleicher & Schuell Inc., Keene, N.H.). The spotted filters were washed repeatedly with 0.5M NaPO4, (pH7.0) to remove unincorporated nucleotide. The filters were counted for Cerenkov radiation by standard procedures in a scintillation counter. Addition of propidium iodide delayed the point in time at which levels of incorporation resulting from the replication of wild type MDV-1 template became detectable.

Structure (SMILES) | ability to inhibit the replication of MDV-1 [1] | also measured
CN1CCN(c2ccc3[nH]c(-c4ccc5[nH]c(-c6ccc(O)cc6)nc5c4)nc3c2)CC1 [Hoescht 33258, Hoescht 33258 (bis-benzamidine)] | except Hoescht 33258, inhibited | –
CN(C)c1ccc2cc3ccc(N(C)C)cc3nc2c1 [acridine orange] | inhibited | –
C[n+]1c(-c2ccccc2)c2cc(N)ccc2c2ccc(N)cc21 [dimidium bromide] | inhibited | –
Cl.Cl.Nc1ccc2c(c1)c(-c1ccccc1)[n+](CCCNCCNCCC[n+]1c(-c3ccccc3)c3cc(N)ccc3c3ccc(N)cc31)c1cc(N)ccc21.[Cl-].[Cl-] [ethidium bromide homodimer] | inhibited | –
CC[n+]1c(-c2ccccc2)c2cc(N)ccc2c2ccc(N)cc21 [ethidium bromide] | inhibited | –
Nc1ccc2cc3ccc(N)cc3nc2c1 [proflavine] | inhibited | –
CC[N+](C)(CC)CCC[n+]1c(-c2ccccc2)c2cc(N)ccc2c2ccc(N)cc21 [propidium iodide] | inhibited | inhibition at 1 µg/mL ([2]; propidium iodide 1 μg/ml, read-out: inhibition of the rate of replication in the geometric phase): 20 to 50%; delay of the appearance of replicated product ([2]; propidium iodide 1 μg/ml, wild type MDV-1 template): 2 to 5 min; reduction in the rate of replication ([2]; propidium iodide 3μg/ml): ~3 fold; delay of the appearance of product ([2]; propidium iodide 3μg/ml, wild type MDV-1 template): about 20 minutes; inhibition at 3 µg/mL ([1]; dye concentration about 3μg/ml): 70%
CCN(CC)CCCC(C)Nc1c2ccc(Cl)cc2nc2ccc(OC)cc12 (stereo not shown) [quinacrine] | inhibited | –

From patent US5556751A, “Selective amplification system using Q-β replicase” (Amoco Corporation, priority 1994, dated 1996)
